Results as given in patent publication US20240115667A1 (priority 2020, published 2024).
pEC50: −log10 of the molar value. Where two headings read alike, the source gives them in different places.

Key:
SARS-CoV-2 [1] = assay type: cell-based
SARS-CoV-2 [2] = assay type: cell-based; settings: diphenhydramine 40 μg/ml, lactoferrin 400 μg/ml; MOI 0.01; 48 h supernatant
SARS-CoV-2 [3] = system: SARS-CoV-2
SARS-CoV-2 [4] = settings: for EC50, inhibition of SARS-CoV-2 induced cytotoxicity: Vero E6, MOI 0.2, LDH release
SARS-CoV-2 [5] = test: microbe, parasite or virus in culture; settings: Severe acute respiratory syndrome coronavirus 2, Vero C1008, read-out: EC50, inhibition of SARS-CoV-2 induced cytotoxicity, diphenhydramine with 400 μg/ml of lactoferrin

SMILES: CN(C)CCOC(c1ccccc1)c1ccccc1 [Diphenhydramine]
- Reduction in N-protein RNA (SARS-CoV-2 [1]): 32.2%
- Reduction of infectious SARS-CoV-2 particle release compared to untreated H23-hACE2 cells (SARS-CoV-2 [2]): −1 log
- Inhibition of SARS-CoV-2 infection in vitro (SARS-CoV-2 [3]): inhibited SARS-CoV-2 infection when administered alone
- Reduction of the diphenhydramine EC50 by presence of LFN (SARS-CoV-2 [3]): 3 times
- Decrease of SARS-CoV-2 induced cytotoxicity (SARS-CoV-2 [3]; 5 μg/mL DPH alone): unable to decrease SARS-CoV-2 induced cytotoxicity
- Decrease of diphenhydramine EC50 (SARS-CoV-2 [4]; co-administration of 400 μg/ml of lactoferrin): 55.5%
- EC50, inhibition of SARS-CoV-2 induced cytotoxicity (SARS-CoV-2 [4]; diphenhydramine alone): 122 µg/mL
- EC50, inhibition of SARS-CoV-2 induced cytotoxicity (SARS-CoV-2 [4]; diphenhydramine with 400 μg/ml of lactoferrin): 54.25 µg/mL
- pEC50 (SARS-CoV-2 [5]; Vero E6, MOI 0.2): 3.73
- EC50 (SARS-CoV-2 [5]; Vero E6, MOI 0.2, LDH release): 54.2 µg/mL
